Measurements: PubChem BioAssay (NCI)
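Cultured in 96-well plates, cells were exposed to test compound for 48 hours across five concentrations. The concentration for 50% growth inhibition is given as GI50. At the TGI there is no net growth.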

Tests used:
Assay in all cases: NCI anticancer screen, dose series, 48 h
RXF 393 renal = test system: RXF 393 renal
MOLT-4 leukemia = test system: MOLT-4 leukemia
LOX IMVI melanoma = test system: LOX IMVI melanoma
SW-620 colon = test system: SW-620 colon
NCI-H23 lung = test system: NCI-H23 lung
SNB-19 CNS = test system: SNB-19 CNS
MDA-MB-435 = test system: MDA-MB-435
OVCAR-4 ovarian = test system: OVCAR-4 ovarian
HOP-92 NSCLC = test system: HOP-92 NSCLC
MCF7 breast = test system: MCF7 breast
SK-MEL-5 melanoma = test system: SK-MEL-5 melanoma
HCT-15 colon = test system: HCT-15 colon
OVCAR-5 ovarian = test system: OVCAR-5 ovarian
MDA-MB-231 breast = test system: MDA-MB-231 breast
MALME-3M melanoma = test system: MALME-3M melanoma
CCRF-CEM leukemia = test system: CCRF-CEM leukemia
UACC-62 melanoma = test system: UACC-62 melanoma
M14 melanoma = test system: M14 melanoma
786-0 renal = test system: 786-0 renal
SN12C renal = test system: SN12C renal
PC-3 prostate = test system: PC-3 prostate
K-562 leukemia = test system: K-562 leukemia
NCI-H226 lung = test system: NCI-H226 lung
ACHN renal = test system: ACHN renal
T-47D breast = test system: T-47D breast
HCC-2998 colon = test system: HCC-2998 colon
NCI-H522 lung = test system: NCI-H522 lung
SNB-75 CNS = test system: SNB-75 CNS
EKVX NSCLC = test system: EKVX NSCLC
SF-268 CNS = test system: SF-268 CNS
HCT-116 colon = test system: HCT-116 colon
UO-31 renal = test system: UO-31 renal
SF-539 CNS = test system: SF-539 CNS
OVCAR-3 ovarian = test system: OVCAR-3 ovarian
UACC-257 melanoma = test system: UACC-257 melanoma
A498 renal = test system: A498 renal
A549 NSCLC = test system: A549 NSCLC
DU-145 prostate = test system: DU-145 prostate
SF-295 CNS = test system: SF-295 CNS
KM12 colon = test system: KM12 colon
NCI/ADR-RES ovarian = test system: NCI/ADR-RES ovarian
NCI-H460 lung = test system: NCI-H460 lung
HL-60(TB) leukemia = test system: HL-60(TB) leukemia
HT29 colon = test system: HT29 colon
SK-MEL-2 melanoma = test system: SK-MEL-2 melanoma
SK-OV-3 ovarian = test system: SK-OV-3 ovarian
RPMI-8226 leukemia = test system: RPMI-8226 leukemia
SR leukemia = test system: SR leukemia
OVCAR-8 ovarian = test system: OVCAR-8 ovarian
COLO 205 colon = test system: COLO 205 colon
IGROV1 ovarian = test system: IGROV1 ovarian
CAKI-1 renal = test system: CAKI-1 renal
U251 CNS = test system: U251 CNS
BT-549 breast = test system: BT-549 breast
SK-MEL-28 melanoma = test system: SK-MEL-28 melanoma
HOP-62 NSCLC = test system: HOP-62 NSCLC

Clc1ccc(Cn2c(CN3CCCC3)nc3ccccc32)cc1 showed a GI50 (RXF 393 renal) of 14.1 µM, a TGI (RXF 393 renal) of 30.2 µM and a GI50 (MOLT-4 leukemia) of 28.3 µM. The TGI (MOLT-4 leukemia) was 95.9 µM, the GI50 (LOX IMVI melanoma) was 17 µM and the TGI (LOX IMVI melanoma) was 34.1 µM. It also gave a GI50 (SW-620 colon) of 14.8 µM, a TGI (SW-620 colon) of 33.3 µM and a GI50 (NCI-H23 lung) of 19 µM. For the same compound, the TGI (NCI-H23 lung) was 59.9 µM, the GI50 (SNB-19 CNS) was 22.1 µM and the TGI (SNB-19 CNS) was 57.1 µM. For the same compound, the GI50 (MDA-MB-435) was 17.1 µM, the TGI (MDA-MB-435) was 41.2 µM and the GI50 (OVCAR-4 ovarian) was 21.9 µM. For the same compound, the TGI (OVCAR-4 ovarian) was 93.3 µM, the GI50 (HOP-92 NSCLC) was 6.03 µM and the TGI (HOP-92 NSCLC) was 29.5 µM. It also gave a GI50 (MCF7 breast) of 17 µM, a TGI (MCF7 breast) of 32.6 µM and a GI50 (SK-MEL-5 melanoma) of 13.3 µM. It also gave a TGI (SK-MEL-5 melanoma) of 26.2 µM, a GI50 (HCT-15 colon) of 24.7 µM and a TGI (HCT-15 colon) of 87.7 µM. For the same compound, the GI50 (OVCAR-5 ovarian) was 25.3 µM, the TGI (OVCAR-5 ovarian) was 87.8 µM and the GI50 (MDA-MB-231 breast) was 18.8 µM. The TGI (MDA-MB-231 breast) was 41.8 µM, the GI50 (MALME-3M melanoma) was 14.9 µM and the TGI (MALME-3M melanoma) was 33.4 µM. The GI50 (CCRF-CEM leukemia) was 27 µM, the TGI (CCRF-CEM leukemia) was > 100 µM and the GI50 (UACC-62 melanoma) was 17.4 µM. The TGI (UACC-62 melanoma) was 47.3 µM, the GI50 (M14 melanoma) was 17.1 µM and the TGI (M14 melanoma) was 34 µM. For the same compound, the GI50 (786-0 renal) was 16.8 µM, the TGI (786-0 renal) was 32.9 µM and the GI50 (SN12C renal) was 30.1 µM. For the same compound, the TGI (SN12C renal) was > 100 µM, the GI50 (PC-3 prostate) was 19.6 µM and the TGI (PC-3 prostate) was 58.3 µM. The GI50 (K-562 leukemia) was 19.4 µM, the TGI (K-562 leukemia) was > 100 µM and the GI50 (NCI-H226 lung) was 14.8 µM. For the same compound, the TGI (NCI-H226 lung) was 41.8 µM, the GI50 (ACHN renal) was 31.1 µM and the TGI (ACHN renal) was > 100 µM. The GI50 (T-47D breast) was 19.7 µM, the TGI (T-47D breast) was 83.5 µM and the GI50 (HCC-2998 colon) was 21.6 µM. It also gave a TGI (HCC-2998 colon) of 54 µM, a GI50 (NCI-H522 lung) of 16.3 µM and a TGI (NCI-H522 lung) of 33.7 µM. For the same compound, the GI50 (SNB-75 CNS) was 21.5 µM, the TGI (SNB-75 CNS) was 82.9 µM and the GI50 (EKVX NSCLC) was 17.5 µM. For the same compound, the TGI (EKVX NSCLC) was 67.7 µM, the GI50 (SF-268 CNS) was 30.8 µM and the TGI (SF-268 CNS) was > 100 µM. It also gave a GI50 (HCT-116 colon) of 11 µM, a TGI (HCT-116 colon) of 24.7 µM and a GI50 (UO-31 renal) of 12.4 µM. It also gave a TGI (UO-31 renal) of 36.5 µM, a GI50 (SF-539 CNS) of 18 µM and a TGI (SF-539 CNS) of 37.1 µM. It also gave a GI50 (OVCAR-3 ovarian) of 18.4 µM, a TGI (OVCAR-3 ovarian) of 47.7 µM and a GI50 (UACC-257 melanoma) of 20 µM. It also gave a TGI (UACC-257 melanoma) of 55 µM, a GI50 (A498 renal) of 11.3 µM and a TGI (A498 renal) of 31.3 µM. The GI50 (A549 NSCLC) was 26.9 µM, the TGI (A549 NSCLC) was > 100 µM and the GI50 (DU-145 prostate) was 32.9 µM. For the same compound, the TGI (DU-145 prostate) was > 100 µM, the GI50 (SF-295 CNS) was 14.3 µM and the TGI (SF-295 CNS) was 31.4 µM. The GI50 (KM12 colon) was 19.5 µM, the TGI (KM12 colon) was 53.4 µM and the GI50 (NCI/ADR-RES ovarian) was 24.3 µM. For the same compound, the TGI (NCI/ADR-RES ovarian) was > 100 µM, the GI50 (NCI-H460 lung) was 14.5 µM and the TGI (NCI-H460 lung) was 34.4 µM. It also gave a GI50 (HL-60(TB) leukemia) of 23.8 µM, a TGI (HL-60(TB) leukemia) of 65.2 µM and a GI50 (HT29 colon) of 15.5 µM. The TGI (HT29 colon) was 38.4 µM, the GI50 (SK-MEL-2 melanoma) was 17.8 µM and the TGI (SK-MEL-2 melanoma) was 34.6 µM. For the same compound, the GI50 (SK-OV-3 ovarian) was 20 µM, the TGI (SK-OV-3 ovarian) was 48.8 µM and the GI50 (RPMI-8226 leukemia) was 16.4 µM. It also gave a TGI (RPMI-8226 leukemia) of 41.7 µM, a GI50 (SR leukemia) of 23.5 µM and a TGI (SR leukemia) of 75.4 µM. The GI50 (OVCAR-8 ovarian) was 29.7 µM, the TGI (OVCAR-8 ovarian) was > 100 µM and the GI50 (COLO 205 colon) was 17.6 µM. The TGI (COLO 205 colon) was 33.4 µM, the GI50 (IGROV1 ovarian) was 23.3 µM and the TGI (IGROV1 ovarian) was > 100 µM. For the same compound, the GI50 (CAKI-1 renal) was 14.7 µM, the TGI (CAKI-1 renal) was 54.8 µM and the GI50 (U251 CNS) was 15.2 µM. For the same compound, the TGI (U251 CNS) was 31.4 µM, the GI50 (BT-549 breast) was 18.1 µM and the TGI (BT-549 breast) was 38.8 µM. The GI50 (SK-MEL-28 melanoma) was 24.6 µM, the TGI (SK-MEL-28 melanoma) was 65.5 µM and the GI50 (HOP-62 NSCLC) was 20.8 µM. The TGI (HOP-62 NSCLC) was 61.5 µM.
